Patent publication US11819025B2, “Active compound combinations having insecticidal/acaricidal properties” (Bayer Aktiengesellschaft, priority 2017, dated 2023)
Like-named read-outs stand apart in the source and are kept apart here.

Legend:
Type in all cases: in vivo
Tetranychus urticae [1] = experiment: Tetranychus urticae - spray test, OP-resistant (Example A, French bean leaf disks); settings: for pest or weed control at 1.2 g/ha: 1.2 g ai/ha
From the text: (§1) E is the efficacy expressed in % mortality of the untreated control using the mixture of A and B at m and n ppm respectively m and n g/ha, • then is
Tetranychus urticae—Spray Test OP-Resistant
Solvent: 78.0 parts by weight acetone • 1.5 parts by weight dimethylformamide
Emulsifier: alkylarylpolyglycol ether […]
French bean (Phaseolus vulgaris) leaf disks infected with all instars of the two spotted spidermite (Tetranychus urticae), are sprayed with a preparation of the active ingredient of the desired concentration.
After the specified period of time, mortality in % is determined. 100% means all spider mites have been killed and 0% means none of the spider mites have been killed. The mortality values determined thus are recalculated using the Colby-formula (see above).

Tetranychus urticae [2] = experiment: Tetranychus urticae - spray test, OP-resistant (Example B, infested bean plants); settings: single active ingredient, mortality
Protocol: as §1
Tetranychus urticae—Spray Test; OP-Resistant
(§2) Solvent: 7 parts by weight of dimethylformamide
Emulsifier: alkylaryl polyglycol ether
Further test concentrations are prepared by dilution with emulsifier containing water.
After the specified period of time mortality in % is determined. 100% means all the spider mites have been killed and 0% means none of the spider mites have been killed. The mortality values determined thus are recalculated using the Colby-formula (see above).

Meloidogyne incognita [3] = experiment: Meloidogyne incognita - test (Example D, soil drench, salad seeds, gall formation); settings: single active ingredient, reduction of gall formation
Protocol: The expected efficacy of a given combination of two compounds is calculated as follows (see Colby, S. R., “Calculating Synergistic and antagonistic Responses of Herbicide Combinations”, Weeds 15, pp. 20-22, 1967): • If • X is the efficacy expressed in % mortality of the untreated control for test compound A at a concentration of m ppm respectively m g/ha, • Y is the efficacy expressed in % mortality of the untreated control for test compound B at a concentration of n ppm respectively n g/ha,
as §1
[formula] • If the observed insecticidal efficacy of the combination is higher than the one calculated as “E”, then the combination of the two compounds is more than additive, i.e., there is a synergistic effect.
Meloidogyne incognita—Test
as §2
Emulsifier: 2.5 parts by weight of alkylarylpolyglycolether
To produce a suitable preparation of active compound, 1 part by weight of active compound is mixed with the stated amount of solvent and emulsifier and is diluted with water to the desired concentration. To produce a suitable preparation of a spore suspension the spores are diluted with emulsifier containing water to the desired concentration. In the calculation of the concentration the soil volume has to be included. […] Further test concentrations are prepared by dilution with water.
The compound solution is poured into pots filled with soil (loamy sand). A suspension containing eggs and larvae of the southern root-knot nematode (Meloidogyne incognita) is added, salad seeds are spread on the soil surface and covered with quartz sand. The salad seeds germinate and the seedlings grow. Galls develop on the roots.
After the specified period of time the nematicidal activity is determined on the basis of the percentage of gall formation. 100% means no galls were found; 0% means the number of galls found on the roots of the treated plants was equal to that in untreated control plants. The activity determined thus is recalculated using the Colby-formula (see above).

Meloidogyne incognita [4] = experiment: Meloidogyne incognita - test (Example C, sand, salad seeds, gall formation); settings: single active ingredient, reduction of gall formation
Protocol: Meloidogvne incognita—Test
Solvent: 125.0 parts by weight of acetone
To produce a suitable preparation of active compound, 1 part by weight of active compound is mixed with the stated amount of solvent, and the concentrate is diluted with water to the desired concentration.
To produce a suitable preparation of a spore suspension the spores are diluted with water to the desired concentration.
Vessels are filled with sand, a solution of the active ingredient, a suspension containing eggs and larvae of the southern root-knot nematode (Meloidogyne incognita) and salad seeds. The salad seeds germinate and the seedlings grow. Galls develop in the roots.
After the specified period of time nematicidal activity is determined on the basis of the percentage of gall formation. 100% means no galls were found and 0% means the number of galls found on the roots of the treated plants was equal to that in untreated control plants.

[5] = Tetranychus urticae, foliar, 144 h, single active ingredient, mortality, read-out: Efficacy in % after 6 days
[6] = 0.5 g ai/ha, single active ingredient, mortality
[7] = Tetranychus urticae, foliar, 144 h, read-out: Efficacy in % after 6 days
[8] = Tetranychus urticae, foliar, 144 h, 0.5 g ai/ha, single active ingredient, mortality, read-out: Efficacy in % after 6 days

What does the source list for `CCCCCCCCCCCCC1=C(OC(C)=O)C(=O)c2ccccc2C1=O` [Acequinocyl, acequinocyl]?
Efficacy in % after 2 days (Tetranychus urticae [1]; 1 g ai/ha, single active ingredient, mortality): 0%; pest or weed control at 1 g/ha (Tetranychus urticae [1]; Tetranychus urticae, foliar, 144 h, 1 g ai/ha, single active ingredient, mortality, read-out: Efficacy in % after 6 days): 0%

`COc1ccc(-c2ccccc2)cc1NNC(=O)OC(C)C` [Bifenazate] was tested. Which “Efficacy in % after 7 days” value (Tetranychus urticae [2]; 2 ppm) did it give?
Its value is 65%.

What about the pest or weed control at 0.25 g/ha (Tetranychus urticae [1]; Tetranychus urticae, foliar, 144 h, 0.25 g ai/ha, single active ingredient, mortality, read-out: Efficacy in % after 6 days) of the same molecule?
Its pest or weed control at 0.25 g/ha is 0%.

And the pest or weed control at 1.8 g/ha (Tetranychus urticae [1]; Tetranychus urticae, foliar, 144 h, 1.8 g ai/ha, single active ingredient, mortality, read-out: Efficacy in % after 6 days)?
The pest or weed control at 1.8 g/ha was 0%.

Which “Efficacy in % after 7 days” value (Tetranychus urticae [2]; 0.2 ppm) does the source give for `Cc1cc(F)c(N=C2SCC(=O)N2CC(F)(F)F)cc1[S+]([O-])CC(F)(F)F` (centres unmarked) [Cpd of formula (I)] here?
The value was 0%.

And the “Efficacy in % after 4 days” value (Tetranychus urticae [2]; 0.4 ppm)?
Its value is 0%.

What about the “Efficacy in % after 7 days” value (Tetranychus urticae [2]; 0.4 ppm) of the same molecule?
The value was 10%.

What about the “Efficacy in % after 4 days” value (Tetranychus urticae [2]; 0.8 ppm) of the same molecule?
The value was 25%.

What about the “Efficacy in % after 20 days” value (Meloidogyne incognita [3]; 10 ppm) of the same molecule?
The value was 0%.

And the “Efficacy in % after 20 days” value (Meloidogyne incognita [3]; 20 ppm)?
The value was 15%.

And the pest or weed control at 1.2 g/ha (Tetranychus urticae [1]; [5])?
The pest or weed control at 1.2 g/ha was 70%.

Which results are given for `O=C(Nc1ccn(-c2c(F)cccc2F)n1)c1ccccc1C(F)(F)F` [Cpd of formula (IIb), N-[1-(2,6-difluorophenyl)-1H-pyrazol-3-yl]-2-(trifluoromethyl)benzamide]?
Efficacy in % after 14 days (Meloidogyne incognita [4]; 1.5 ppm): 0%; Efficacy in % after 20 days (Meloidogyne incognita [3]; 0.4 ppm): 0%

How did the “Efficacy in % after 7 days” value (Tetranychus urticae [2]; 3.2 ppm) turn out when `CC(C)c1cc(Oc2ccccc2)cc(C(C)C)c1NC(=S)NC(C)(C)C` [Diafenthiuron, diafenthiuron] was run?
Its value is 15%.

And the “Efficacy in % after 2 days” value (Tetranychus urticae [1]; [6])?
The value was 0%.

What about the pest or weed control at 0.5 g/ha (Tetranychus urticae [1]; [7]) of the same molecule?
The pest or weed control at 0.5 g/ha was 0%.

And the pest or weed control at 3 g/ha (Tetranychus urticae [1]; [7])?
The pest or weed control at 3 g/ha was 0%.

How did the pest or weed control at 1.2 g/ha (Tetranychus urticae [1]; [5]) turn out when `CC(C)(C)c1ccc(CCOc2ncnc3ccccc23)cc1` [Fenazaquin, fenazaquin] was run?
The pest or weed control at 1.2 g/ha was 0%.

What about the pest or weed control at 2.4 g/ha (Tetranychus urticae [1]; Tetranychus urticae, foliar, 144 h, 2.4 g ai/ha, single active ingredient, mortality, read-out: Efficacy in % after 6 days) of the same molecule?
The pest or weed control at 2.4 g/ha was 0%.

`Cc1nn(C)c(Oc2ccccc2)c1C=NOCc1ccc(C(=O)OC(C)(C)C)cc1` [Fenpyroximate, fenpyroximate] was tested. Which pest or weed control at 0.2 g/ha (Tetranychus urticae [1]; [7]) did it give?
Its pest or weed control at 0.2 g/ha is 0%.

Which results are given for `COc1ccc(Cl)c(S(=O)(=O)NC(=O)c2cn3cc(C(F)(F)F)cc(Cl)c3n2)c1` [Fluazaindolizine]?
Efficacy in % after 14 days (Meloidogyne incognita [4]; 0.025 ppm): 0%; Efficacy in % after 20 days (Meloidogyne incognita [3]; 0.2 ppm): 0%; Efficacy in % after 20 days (Meloidogyne incognita [3]; 0.4 ppm): 40%

Which “Efficacy in % after 14 days” value (Meloidogyne incognita [4]; 0.1 ppm) does the source give for `O=S(=O)(CCC(F)=C(F)F)c1ncc(Cl)s1` [Fluensulfone] here?
The value was 0%.

And the “Efficacy in % after 14 days” value (Meloidogyne incognita [4]; 0.2 ppm)?
Its value is 0%.

What about the “Efficacy in % after 20 days” value (Meloidogyne incognita [3]; 0.4 ppm) of the same molecule?
The value was 0%.

Which “Efficacy in % after 20 days” value (Meloidogyne incognita [3]; 0.04 ppm) does the source give for `O=C(NCCc1ncc(C(F)(F)F)cc1Cl)c1ccccc1C(F)(F)F` [Fluopyram] here?
The value was 0%.

What about the “Efficacy in % after 20 days” value (Meloidogyne incognita [3]; 0.08 ppm) of the same molecule?
The value was 0%.

Which results are given for `CNC(=O)Oc1cc(C)c(SC)c(C)c1` [Methiocarb, 4-methylthio-3,5-xylyl methylcarbamate]?
pest or weed control at 6 g/ha (Tetranychus urticae [1]; Tetranychus urticae, foliar, 144 h, 6 g ai/ha, single active ingredient, mortality, read-out: Efficacy in % after 6 days): 0%; pest or weed control at 12 g/ha (Tetranychus urticae [1]; Tetranychus urticae, foliar, 144 h, 12 g ai/ha, single active ingredient, mortality, read-out: Efficacy in % after 6 days): 0%

With `CC(C)(C)c1ccc(CSc2cnn(C(C)(C)C)c(=O)c2Cl)cc1` [Pyridaben, pyridaben] as the molecule, how does the pest or weed control at 0.5 g/ha (Tetranychus urticae [1]; [8]) read?
The pest or weed control at 0.5 g/ha was 0%.

Which results are given for `CCc1nn(C)c(C(=O)NCc2ccc(C(C)(C)C)cc2)c1Cl` [Tebufenpyrad, tebufenpyrad]?
Efficacy in % after 2 days (Tetranychus urticae [1]; [6]): 0%; pest or weed control at 0.5 g/ha (Tetranychus urticae [1]; [8]): 0%

How did the “Efficacy in % after 20 days” value (Meloidogyne incognita [3]; 1.25 ppm) turn out when `c1ccc(-c2noc(-c3cccs3)n2)cc1` [Tioxazafen] was run?
Its value is 0%.
